The results in this text go back to ChEMBL document CHEMBL1144633, “Affinity-based ranking of ligands for DPP-4 from mixtures” (Bioorg Med Chem Lett, 2007).

In this assay the target is Dipeptidyl peptidase 4 (Homo sapiens, UniProt P27487). Briefly: Inhibition of DPP4.
Chain of Dipeptidyl peptidase 4 (P27487 whole entry): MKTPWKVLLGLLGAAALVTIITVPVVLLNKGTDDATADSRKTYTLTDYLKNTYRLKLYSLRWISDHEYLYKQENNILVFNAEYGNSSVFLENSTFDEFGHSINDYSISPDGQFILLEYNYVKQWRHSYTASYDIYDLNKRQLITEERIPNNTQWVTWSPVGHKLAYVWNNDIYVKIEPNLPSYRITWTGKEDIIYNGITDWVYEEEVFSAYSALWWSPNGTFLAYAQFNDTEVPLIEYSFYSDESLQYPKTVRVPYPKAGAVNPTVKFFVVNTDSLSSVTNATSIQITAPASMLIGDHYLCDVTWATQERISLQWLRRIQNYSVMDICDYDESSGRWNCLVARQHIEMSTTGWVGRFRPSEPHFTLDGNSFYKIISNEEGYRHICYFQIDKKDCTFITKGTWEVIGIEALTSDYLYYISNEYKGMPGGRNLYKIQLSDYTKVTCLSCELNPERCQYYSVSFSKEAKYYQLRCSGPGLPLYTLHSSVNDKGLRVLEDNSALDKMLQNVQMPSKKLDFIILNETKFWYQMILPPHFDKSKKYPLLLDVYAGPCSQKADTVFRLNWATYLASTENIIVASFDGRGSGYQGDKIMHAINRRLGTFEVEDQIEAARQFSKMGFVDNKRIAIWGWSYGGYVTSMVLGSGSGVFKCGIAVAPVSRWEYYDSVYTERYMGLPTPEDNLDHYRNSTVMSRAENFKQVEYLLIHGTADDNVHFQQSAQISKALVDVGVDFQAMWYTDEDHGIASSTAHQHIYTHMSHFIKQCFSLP
In the case of `C=CCC(C(=O)N1CCn2c(nnc2C(F)(F)F)C1)[C@H](N)Cc1cc(F)c(F)cc1F` (stereo partly specified), half-maximal inhibition (IC50) required 2000 nM. The result for `COc1cc(CNC(=O)[C@@H]2CCCN2C(=O)C[C@H](N)Cc2ccccc2F)ccc1O` reads 864 nM; that for `N[C@@H](CC(=O)N1CCn2cc(C(F)(F)F)nc2C1c1ccc(F)cc1)Cc1ccc(F)c(F)c1` (stereo partly specified), 1400 nM; that for `N[C@H](C(=O)N1CCC(F)(F)C1)[C@@H]1CCN(S(=O)(=O)c2ccc(OC(F)(F)F)cc2)C1`, 995 nM. In turn, `O=C([C@@H]1Cc2ccc(-c3cccc(-c4nnn[nH]4)c3)cc2CN1)N1CC[C@H](F)C1` gave an IC50 of 310 nM. This IC50 lies about 3.2-fold lower than the previous one. Consider `CSc1cc(F)c(C[C@@H](N)CC(=O)N2CCn3c(nnc3C(F)(F)F)C2)cc1F`, for which the IC50 worked out at 780 nM. With `N[C@@H](CC(=O)N1CCn2nccc21)Cc1cc(F)ccc1F`, half-maximal inhibition (IC50) required 1320 nM. `N[C@@H](CC(=O)N1CCN(c2ccc(Cl)cc2)CC1)Cc1ccccc1F` registered an IC50 of 1250 nM. In turn, `N[C@@H](CC(=O)N1CCC[C@H]1C(=O)NCc1ccc(C(F)(F)F)cc1)Cc1ccccc1F` returned an IC50 of 731 nM. Consider `CC(C)[C@H](Oc1ccc(CNC(=O)[C@@H]2CCCN2C(=O)C[C@H](N)Cc2cc(F)c(F)c(F)c2F)cc1)C(=O)O`, for which the IC50 is 8 nM. Compound `C=COCC(=O)N1CCN(C(=O)C[C@H](N)Cc2ccccc2F)CC1` returned an IC50 of 2210 nM.
